Legend:
[1] = Determination of metabolic stability with human liver microsomes; conditions: pooled human liver microsomes; for half-life at 1 μM: human, pH 7.6
[2] = target: recombinant human DPPI (Cathepsin C) (Homo sapiens (Human), UniProt P53634); assay: Inhibition of human DPPI (Cathepsin C); type: biochemical; conditions: substrate Gly-Arg-AMC
Method in brief: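 Fluorescence read after 30 min room-temperature turnover of 50 μM (final) substrate by recombinant human cathepsin C, pH 6.0 MES/NaCl/DTT/BSA buffer, quenched by Gly-Phe-DMK (1 μM final). Activity as percent of vehicle after background subtraction, used for IC50.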

[3] = target: recombinant human Cathepsin K (Homo sapiens (Human), UniProt P43235); assay: Inhibition of human Cathepsin K; type: biochemical; conditions: substrate Z-Gly-Pro-Arg-AMC
Description: Inhibition of Human Cathepsin K
Materials: Microtiterplates (Optiplate-384 F were purchased from PerkinElmer (Prod. No. 6007270). The substrate Z-Gly-Pro-Arg-AMC was from Biomol (Prod.-No. P-142). L-Cysteine (Prod. No. 168149) was from Sigma. Sodium acetate was from Merck (Prod.-No. 6268.0250), EDTA was from Fluka (Prod.-No. 03680). The inhibitor E-64 was purchased from Sigma (Prod.-No. E3132). The recombinant human Cathepsin K proenzyme was purchased from Biomol (Prod. No. SE-367). All other materials were of highest grade commercially available.
The following buffers were used: Activation buffer: 32.5 mM sodium acetate, adjusted to pH 3.5 with HCl; Assay buffer: 150 mM sodium acetate, 4 mM EDTA, 20 mM L-Cysteine, adjusted to pH 5.5 with HCl,
To activate the proenzyme, 5 μl procathepsin K were mixed with 1 ul activation buffer, and incubated at room temperature for 30 min.
5 μL test compound (final concentration 0.1 nM to 100 μM) in aqua bidest (containing 4% DMSO, final DMSO concentration 1%) were mixed with 10 uL of Cathepsin K in assay buffer (final concentration 2 ng/μL) and incubated for 10 min. […] The plates were then incubated at room temperature for 60 min. Then, the reaction was stopped by adding 10 μL of E64 in assay buffer (final concentration 1 μM). The fluorescence in the wells was determined using a Molecular Devices SpectraMax M5 Fluorescence Reader (Ex 360 nm, Em 460 nm).
Each assay microtiter plate contains wells with vehicle controls (1% DMSO in bidest) as reference for non-inhibited enzyme activity (100% Ctl; high values) and wells with inhibitor (E64 in bidest+1% DMSO, final concentration […]) as controls for background fluorescence (0% Ctl; low values). The analysis of the data was performed by calculating the percentage of fluorescence in the presence of test compound in comparison to the fluorescence of the vehicle control after subtracting the background fluorescence: (RFU(sample)−RFU(background))*100/(RFU(control)−RFU(background))
Data from these calculations were used to generate IC50 values for inhibition of Cathepsin K, respectively.

Chain of recombinant human DPPI (Cathepsin C) (P53634 231-394): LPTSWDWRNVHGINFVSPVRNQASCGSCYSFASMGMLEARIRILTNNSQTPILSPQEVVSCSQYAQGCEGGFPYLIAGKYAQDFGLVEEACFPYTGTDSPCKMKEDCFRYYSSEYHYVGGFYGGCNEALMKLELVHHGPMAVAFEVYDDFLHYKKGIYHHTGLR
Chain of recombinant human DPPI (Cathepsin C) (P53634 395-463): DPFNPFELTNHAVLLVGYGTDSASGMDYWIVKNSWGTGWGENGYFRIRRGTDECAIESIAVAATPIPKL
Chain of recombinant human DPPI (Cathepsin C) (P53634 25-134): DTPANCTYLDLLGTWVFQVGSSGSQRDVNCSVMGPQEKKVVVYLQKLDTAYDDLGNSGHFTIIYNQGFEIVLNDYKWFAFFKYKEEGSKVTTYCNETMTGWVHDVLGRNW
Chain of recombinant human Cathepsin K (P43235 115-329): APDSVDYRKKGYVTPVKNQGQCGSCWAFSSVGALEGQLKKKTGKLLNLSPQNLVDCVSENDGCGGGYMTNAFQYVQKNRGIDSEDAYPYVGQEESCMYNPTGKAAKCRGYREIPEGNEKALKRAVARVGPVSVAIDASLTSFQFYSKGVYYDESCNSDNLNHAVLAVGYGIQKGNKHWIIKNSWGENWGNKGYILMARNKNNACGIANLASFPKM

SMILES | half-life at 1 μM [1] | IC50 [2] | In vitro stability in human liver microsome incubations t½ ([1]; 1 μM test compound, 37° C., NADPH) | IC50 [3]
Cn1c(=O)c2cc(CC(C#N)NC(=O)[C@H]3N[C@@H]4CC[C@H]3C4)ccc2c2ccc(Cl)cc21 (stereo partly drawn) [Example 305, (1S,2S,4R)—N-[2-(3-chloro-5-methyl-6-oxo-phenanthridin-8-yl)-1-cyano-ethyl]-3-azabicyclo[2.2.1]heptane-2-carboxamide] | 91 min | 6.9 nM | – | –
CNc1nc2cc(-c3ccc(C[C@@H](C#N)NC(=O)[C@H]4N[C@@H]5CC[C@H]4C5)c(F)c3)ccc2[nH]1 [Example 347] | > 130 min | 8.5 nM | – | –
N#CC(Cc1ccc2c(c1)c(=O)[nH]c1c(C(=O)NC3CC3)cccc12)NC(=O)[C@H]1N[C@@H]2CC[C@H]1C2 (stereo partly drawn) [Example 341] | > 130 min | 7.6 nM | – | –
N#CC(Cc1ccc2c(c1)c(=O)[nH]c1c(F)cccc12)NC(=O)[C@H]1N[C@@H]2CC[C@H]1C2 (stereo partly drawn) [Example 308] | > 130 min | 8.3 nM | – | –
N#CC(Cc1ccc2c(c1)c(=O)[nH]c1ccccc12)NC(=O)[C@H]1N[C@@H]2CC[C@H]1C2 (stereo partly drawn) [Example 9, (1S,2S,4R)—N-[1-cyano-2-(6-oxo-5H-phenanthridin-8-yl)ethyl]-3-azabicyclo[2.2.1]heptane-2-carboxamide] | > 120 min | 9.6 nM | – | –
CN1C(=O)Cc2ccc(-c3cc(F)c(CC(C#N)NC(=O)[C@H]4N[C@@H]5CC[C@H]4C5)c(F)c3)cc21 (stereo partly drawn) [Example 61] | – | 8.7 nM | – | 10.9 µM
Cn1nc2ccccc2c1-c1ccc(C[C@@H](C#N)NC(=O)[C@H]2N[C@@H]3CC[C@H]2C3)c(F)c1 [Example 60] | – | 8.7 nM | – | 12.3 µM
Cn1cc(-c2ccc(C[C@@H](C#N)NC(=O)[C@H]3N[C@@H]4CC[C@H]3C4)c(F)c2)c(C(F)(F)F)n1 [Example 118] | – | 44.3 nM | – | 3.9 µM
Cn1ncc2ccc(-c3ccc(C[C@@H](C#N)NC(=O)[C@H]4N[C@H]5C[C@@H]4[C@@H]4C[C@@H]45)c(F)c3)cc21 [Example 70] | – | 10.2 nM | – | 12 µM
CN1C(=O)Cc2ccc(-c3ccc(C[C@@H](C#N)NC(=O)[C@H]4N[C@@H]5CC[C@H]4C5)c(Cl)c3)cc21 [Example 81] | – | 13.1 nM | – | 4.5 µM
N#CC(Cc1ccc2c(c1)c(=O)[nH]c1cc(Cl)ccc12)NC(=O)[C@H]1N[C@@H]2CC[C@H]1C2 (stereo partly drawn) [Example 297] | – | 3.2 nM | – | 12.4 µM
N#C[C@H](Cc1ccc(-c2cccc(S(N)(=O)=O)c2)cc1F)NC(=O)[C@H]1N[C@@H]2CC[C@H]1C2 [Example 37] | – | 4.7 nM | – | 5.1 µM
N#C[C@H](Cc1ccc(-c2ccc(Cl)nc2)cc1F)NC(=O)[C@H]1N[C@H]2C[C@@H]1[C@@H]1C[C@@H]12 [Example 145] | – | 53.8 nM | – | 7.4 µM
COC(=O)Cn1cc(-c2ccc(C[C@@H](C#N)NC(=O)[C@H]3N[C@@H]4CC[C@H]3C4)c(F)c2)cn1 [Example 13] | – | 1.9 nM | – | 3.4 µM
CS(=O)(=O)c1ccc(-c2ccc(C[C@@H](C#N)NC(=O)[C@H]3N[C@H]4C[C@@H]3[C@@H]3C[C@@H]34)c(F)c2)cc1 [Example 141] | – | 36.6 nM | – | 8.8 µM
N#C[C@H](Cc1ccc(-c2ccc3c(c2)CC(=O)N3)cc1F)NC(=O)[C@H]1N[C@H]2C[C@@H]1[C@@H]1C[C@@H]12 [Example 134] | – | 17.8 nM | – | 6.7 µM
CNC(=O)c1ccc(-c2ccc(C[C@@H](C#N)NC(=O)[C@H]3N[C@@H]4CC[C@H]3C4)c(F)c2)cc1 [Example 186] | – | 9.6 nM | – | 3.5 µM
CN1Cc2cc(-c3ccc(C[C@@H](C#N)NC(=O)[C@H]4N[C@H]5C[C@@H]4[C@@H]4C[C@@H]45)c(F)c3)ccc2C1=O [Example 149] | – | 38.7 nM | – | 7.6 µM
N#C[C@H](Cc1ccc(-c2ccc(C(N)=O)cc2)cc1F)NC(=O)[C@H]1N[C@H]2C[C@@H]1[C@@H]1C[C@@H]12 [Example 130] | – | 43.5 nM | – | 10.2 µM
N#C[C@H](Cc1ccc(-n2cc(-c3ccc4occc4c3)nn2)cc1F)NC(=O)[C@H]1N[C@@H]2CC[C@H]1C2 [Example 84] | – | 13.7 nM | – | 4.9 µM
N#C[C@H](Cc1ccc(-c2ccc(C(=O)N3CCn4nccc4C3)s2)cc1F)NC(=O)[C@H]1N[C@@H]2CC[C@H]1C2 [Example 237] | – | 4.6 nM | – | 1.9 µM
CNC(=O)c1cc(-c2ccc(C[C@@H](C#N)NC(=O)[C@H]3N[C@@H]4CC[C@H]3C4)c(F)c2)cs1 [Example 161] | – | 1.9 nM | – | 10.7 µM

Results, then the compound that gave them:

half-life at 1 μM [1] | IC50 [2] | In vitro stability in human liver microsome incubations t½ ([1]; 1 μM test compound, 37° C., NADPH) | IC50 [3] | SMILES
> 130 min | 10.4 nM | – | – | N#C[C@H](Cc1ccc(OCCN2CCNCC2)cc1F)NC(=O)[C@H]1N[C@@H]2CC[C@H]1C2 [Example 189]
91 min | 11.2 nM | – | – | COCCN1C(C)CN(c2ccc(C[C@@H](C#N)NC(=O)[C@H]3N[C@@H]4CC[C@H]3C4)c(F)c2)CC1C (stereo partly drawn) [Example 191]
> 130 min | 6.8 nM | – | – | CCN1CCN(c2ccc(C[C@@H](C#N)NC(=O)[C@H]3N[C@@H]4CC[C@H]3C4)c(F)c2)CC1 [Example 272]
> 130 min | 7.4 nM | – | – | COCCN1CCN(c2ccc(C[C@@H](C#N)NC(=O)[C@H]3N[C@@H]4CC[C@H]3C4)c(F)c2)CC1C (stereo partly drawn) [Example 178]
> 130 min | 206 nM | – | – | CN1CCN(c2ccc(C[C@@H](C#N)NC(=O)[C@H]3N[C@@H]4CC[C@H]3C4)c(F)c2)C(=O)C1 [Example 125]
> 130 min | 2 nM | – | – | N#Cc1ccc(-c2ccc(C[C@@H](C#N)NC(=O)[C@H]3N[C@@H]4CC[C@H]3C4)c(F)c2)o1 [Example 162]
> 130 min | 3.4 nM | – | – | N#C[C@H](Cc1ccc(N2CC3(CNC3)C2)cc1F)NC(=O)[C@H]1N[C@@H]2CC[C@H]1C2 [Example 327]
> 130 min | 18 nM | – | – | N#C[C@H](Cc1ccc(N2CCC3C(=O)NCCC3C2)cc1F)NC(=O)[C@H]1N[C@@H]2CC[C@H]1C2 (stereo partly drawn) [Example 248]
58 min | – | – | – | N#C[C@H](Cc1ccc([C@H]2CCN3CCOC[C@H]3C2)cc1F)NC(=O)[C@H]1N[C@@H]2CC[C@H]1C2 [Example 284]
> 130 min | – | – | – | CC1CN(C)CCN1c1ccc(C[C@@H](C#N)NC(=O)[C@H]2N[C@@H]3CC[C@H]2C3)c(F)c1 (stereo partly drawn) [Example 192]
> 130 min | 10.9 nM | – | – | Cn1ccc(-c2ccc(C[C@@H](C#N)NC(=O)[C@H]3N[C@@H]4CC[C@H]3C4)c(F)c2)cc1=O [Example 255]
– | – | 130 min | – | N#C[C@H](Cc1ccc(N2CCCN3CCCC3C2)cc1F)NC(=O)[C@H]1N[C@@H]2CC[C@H]1C2 (stereo partly drawn) [Example 271]
– | 11.4 nM | – | 5.3 µM | N#C[C@H](Cc1ccc(-c2ccccc2)cc1F)NC(=O)[C@H]1N[C@@H]2CC[C@H]1C2 [Example 75]
97 min | – | – | – | C[C@H]1CN(C)CCN1c1ccc(C[C@@H](C#N)NC(=O)[C@H]2N[C@@H]3CC[C@H]2C3)c(F)c1 [Example 188]
– | 11.4 nM | – | 2.5 µM | N#C[C@H](Cc1ccc(-c2cnn(C(=O)C3CCOCC3)c2)cc1F)NC(=O)[C@H]1N[C@@H]2CC[C@H]1C2 [Example 74]
– | 4.7 nM | – | 3 µM | N#C[C@H](Cc1ccc(-c2cccs2)cc1F)NC(=O)[C@H]1N[C@@H]2CC[C@H]1C2 [Example 36]
– | 8.5 nM | – | 2.5 µM | N#C[C@H](Cc1ccc(-c2cnc(N3CCOCC3)s2)cc1F)NC(=O)[C@H]1N[C@@H]2CC[C@H]1C2 [Example 59]
– | 11.2 nM | – | 3.1 µM | N#C[C@H](Cc1ccc(-c2ccco2)cc1F)NC(=O)[C@H]1N[C@@H]2CC[C@H]1C2 [Example 73]
– | 12.4 nM | – | 4.1 µM | Cc1nc(C)c(-c2ccc(C[C@@H](C#N)NC(=O)[C@H]3N[C@@H]4CC[C@H]3C4)c(F)c2)s1 [Example 80]
– | 3.9 nM | – | 6.3 µM | Cc1ncc(-c2ccc(C[C@@H](C#N)NC(=O)[C@H]3N[C@@H]4CC[C@H]3C4)c(F)c2)s1 [Example 25]
– | 4 nM | – | 3.6 µM | CCn1cc(-c2ccc(C[C@@H](C#N)NC(=O)[C@H]3N[C@@H]4CC[C@H]3C4)c(F)c2)cn1 [Example 26]
– | 156 nM | – | 5.2 µM | Cc1noc(C)c1-c1ccc(C[C@@H](C#N)NC(=O)[C@H]2N[C@@H]3CC[C@H]2C3)c(F)c1 [Example 121]
